The source of these data is PubChem BioAssay (NCI).

Test systems include ACHN renal; HL-60(TB) leukemia; RPMI-8226 leukemia; SK-OV-3 ovarian; CCRF-CEM leukemia; SK-MEL-5 melanoma; COLO 205 colon; OVCAR-5 ovarian; NCI/ADR-RES ovarian; SR leukemia.
Common to all, as to test: NCI tumour cell line growth inhibition, 48 h

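Grown in 96-well plates, cells were treated for 48 hours with each compound at five concentrations. Insufficient inhibition: endpoint recorded as highest concentration tested. GI50 marks 50% less growth. TGI denotes the concentration required for complete inhibition of growth.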

For `CC(CC(=O)N1C(=O)C(C)(C)[C@@H](O)[C@H]1CC(C)C(Cl)(Cl)Cl)C(Cl)(Cl)Cl` (some centres not stated), the TGI in the experiment on ACHN renal, with HL-60(TB) leukemia, in the experiment on RPMI-8226 leukemia, with SK-OV-3 ovarian, in the experiment on CCRF-CEM leukemia and with SK-MEL-5 melanoma was greater than 100 µM throughout. This compound registered a TGI with COLO 205 colon greater than 100 µM.
As for `COc1cc(/C=C(\NC(=O)c2ccccc2)c2nc3ccc4c(c3[nH]2)C(=O)c2ccccc2C4=O)cc(OC)c1OC`, the TGI is greater than 100 µM in the experiment with RPMI-8226 leukemia; 95.6 µM in the experiment on SK-OV-3 ovarian; greater than 100 µM in the experiment on CCRF-CEM leukemia; greater than 100 µM in the experiment on SK-MEL-5 melanoma; greater than 100 µM with COLO 205 colon; greater than 100 µM in the experiment on OVCAR-5 ovarian.
With `CC1(C)S[C@@H]2[C@H](N3C(=O)c4ccccc4C3=O)CN2[C@H]1NC(=O)N[C@@H]1N2C[C@@H](N3C(=O)c4ccccc4C3=O)[C@H]2SC1(C)C`, the TGI with ACHN renal, with NCI/ADR-RES ovarian, with HL-60(TB) leukemia, in the experiment on RPMI-8226 leukemia, in the experiment with SK-OV-3 ovarian and in the experiment on CCRF-CEM leukemia was greater than 100 µM in each case. Also, the TGI with SK-MEL-5 melanoma, in the experiment on COLO 205 colon and in the experiment on OVCAR-5 ovarian was greater than 100 µM in each case.
With `NC(=NCc1ccccc1)C(N=Nc1ccccc1)C(=O)NCc1ccccc1` (configuration not stated), the GI50 in the experiment with ACHN renal is 18.1 µM; in the experiment on NCI/ADR-RES ovarian, 6.46 µM; in the experiment with HL-60(TB) leukemia, 4.64 µM; with RPMI-8226 leukemia it was 9.31 µM; in the experiment with SK-OV-3 ovarian, 20.1 µM; with CCRF-CEM leukemia, 3.54 µM. Besides, the GI50 in the experiment on SK-MEL-5 melanoma was 23.4 µM; in the experiment on COLO 205 colon, 14.8 µM; in the experiment with OVCAR-5 ovarian, 18 µM. The TGI is 39.3 µM in the experiment with ACHN renal; 23.8 µM with NCI/ADR-RES ovarian; 27.4 µM with HL-60(TB) leukemia; greater than 100 µM with RPMI-8226 leukemia; 47.7 µM in the experiment on SK-OV-3 ovarian; 84.4 µM in the experiment with CCRF-CEM leukemia. Besides, the TGI with SK-MEL-5 melanoma was found to be 67.3 µM; with COLO 205 colon, 37.2 µM; in the experiment on OVCAR-5 ovarian, 44.7 µM.
Regarding `COc1ccc2c(c1)c(-c1nc(-c3c[nH]c4ncccc34)cs1)cn2CCCN1CCCCC1`, the GI50 with ACHN renal was 1.62 µM; in the experiment on NCI/ADR-RES ovarian it was 1.72 µM; in the experiment with HL-60(TB) leukemia, 1.86 µM; in the experiment with RPMI-8226 leukemia it was 2.19 µM; in the experiment with SK-OV-3 ovarian, 1.73 µM; with COLO 205 colon it was 1.8 µM. Further, the GI50 in the experiment on OVCAR-5 ovarian was 1.73 µM. Also, the TGI in the experiment on ACHN renal was determined as 3.01 µM; in the experiment on NCI/ADR-RES ovarian it was 3.44 µM; with HL-60(TB) leukemia, 3.79 µM; in the experiment on RPMI-8226 leukemia, 4.8 µM; in the experiment with SK-OV-3 ovarian it was 3.27 µM; in the experiment with COLO 205 colon it was 3.52 µM. The compound also registered a TGI in the experiment on OVCAR-5 ovarian of 3.8 µM.
Consider `O=C1C(Cl)=C(Nc2ccc(Nc3ccccc3)c(NC3=C(Cl)C(=O)c4ccccc4C3=O)c2)C(=O)c2ccccc21`, for which the GI50 is 27.5 µM in the experiment on NCI/ADR-RES ovarian; 2.07 µM in the experiment with HL-60(TB) leukemia; 3.33 µM in the experiment with RPMI-8226 leukemia; 3.71 µM in the experiment on CCRF-CEM leukemia; 13.1 µM in the experiment with SK-MEL-5 melanoma; 24 µM in the experiment on OVCAR-5 ovarian. The TGI was greater than 100 µM in the experiment with NCI/ADR-RES ovarian; 4.65 µM in the experiment with HL-60(TB) leukemia; greater than 100 µM with RPMI-8226 leukemia; greater than 100 µM with CCRF-CEM leukemia; 32 µM with SK-MEL-5 melanoma; 66.8 µM in the experiment with OVCAR-5 ovarian.
Consider `O=C1C(=O)N(c2ccc(Cl)cc2)C(=O)C(=O)C1c1nc2ccccc2o1`, for which the TGI with ACHN renal, in the experiment with HL-60(TB) leukemia, with RPMI-8226 leukemia, in the experiment on SK-OV-3 ovarian, with CCRF-CEM leukemia and in the experiment on SK-MEL-5 melanoma was greater than 100 µM throughout. In addition, the TGI in the experiment with COLO 205 colon and in the experiment on OVCAR-5 ovarian was greater than 100 µM throughout.
Regarding `O=S(=O)([O-])c1ccc(N=Cc2ccccc2[O-])cc1.O=S(=O)([O-])c1ccc(N=Cc2ccccc2[O-])cc1.[Co+2]`, the GI50 was greater than 100 µM with ACHN renal; 40.1 µM in the experiment on HL-60(TB) leukemia; 96.8 µM in the experiment on RPMI-8226 leukemia; 36.6 µM in the experiment on SK-OV-3 ovarian; 15.5 µM with CCRF-CEM leukemia; 30.3 µM with SR leukemia. The GI50 in the experiment on COLO 205 colon and in the experiment on OVCAR-5 ovarian was greater than 100 µM throughout. Also, the TGI in the experiment on ACHN renal, with HL-60(TB) leukemia, in the experiment with RPMI-8226 leukemia, with SK-OV-3 ovarian, with CCRF-CEM leukemia and with SR leukemia was greater than 100 µM each time. Besides, the TGI in the experiment with COLO 205 colon and with OVCAR-5 ovarian was greater than 100 µM each time.
Take `CN1CN(C2OC(CO)C(O)C2O)c2nc(N)[nH]c(=O)c21` (configuration not stated): the TGI in the experiment with ACHN renal, in the experiment on HL-60(TB) leukemia, in the experiment with RPMI-8226 leukemia, in the experiment on SK-OV-3 ovarian, in the experiment on SK-MEL-5 melanoma and in the experiment with SR leukemia was greater than 100 µM throughout. For the same compound, the TGI with COLO 205 colon and in the experiment on OVCAR-5 ovarian was greater than 100 µM in each case.
For the compound `COc1cc(-c2nccc3cc(OC)c(OC)cc23)ccc1O`, the TGI with ACHN renal is greater than 100 µM; in the experiment on HL-60(TB) leukemia, 67.4 µM; in the experiment on RPMI-8226 leukemia, greater than 100 µM; in the experiment with SK-OV-3 ovarian, greater than 100 µM; in the experiment with CCRF-CEM leukemia, greater than 100 µM; in the experiment with SK-MEL-5 melanoma, greater than 100 µM. Besides, the TGI in the experiment with SR leukemia, in the experiment on COLO 205 colon and in the experiment on OVCAR-5 ovarian was greater than 100 µM each time.
As for `O=c1c2ccc(S(=O)(=O)c3ccc4c(=O)n5c6ccccc6nc5c5cccc3c45)c3cccc(c32)c2nc3ccccc3n12`, the TGI with ACHN renal is 30.2 µM; in the experiment on NCI/ADR-RES ovarian, greater than 100 µM; in the experiment on RPMI-8226 leukemia, greater than 100 µM; in the experiment on SK-OV-3 ovarian, 31.6 µM; in the experiment with SK-MEL-5 melanoma it was greater than 100 µM; in the experiment on COLO 205 colon it was greater than 100 µM. In the experiment on OVCAR-5 ovarian, this compound displayed a TGI greater than 100 µM.
On to `CCC[CH2][Sn]([CH2]CCC)([O]c1cccc2cccnc12)[O]c1cccc2cccnc12`, for which the GI50 with ACHN renal was 0.458 µM; with SK-OV-3 ovarian it was 1.91 µM; in the experiment on CCRF-CEM leukemia, 0.0317 µM; in the experiment on SK-MEL-5 melanoma it was 0.192 µM; in the experiment with COLO 205 colon, 0.482 µM. For the same compound, the TGI was 0.853 µM in the experiment with ACHN renal; 3.33 µM with SK-OV-3 ovarian; 0.313 µM in the experiment with CCRF-CEM leukemia; 0.409 µM in the experiment on SK-MEL-5 melanoma; 1.7 µM in the experiment on COLO 205 colon.
As for `BrC(Br)=C1C(=C(Br)Br)C(Br)C1Br` (configuration not stated), the TGI came to 1.49 µM in the experiment on ACHN renal; 1.14 µM with RPMI-8226 leukemia; 12.7 µM in the experiment on SK-OV-3 ovarian; 1.6 µM with CCRF-CEM leukemia; 2.04 µM in the experiment with SK-MEL-5 melanoma; 1.54 µM in the experiment with SR leukemia. Moreover, the TGI in the experiment with COLO 205 colon worked out at 2.59 µM; in the experiment on OVCAR-5 ovarian, 3.27 µM.
